The record followed here is patent US20250387481A1, “PRE-TREATED T CELLS FOR USE AS A MEDICAMENT” (STICHTING HET NEDERLANDS KANKER INSTITUUT-ANTONI VAN …, priority 2022, published 2025).

For one assay, the system named is MMTV-PyMT organoids. Description: MTT measurement of MMTV-PyMT organoid survival upon increasing doses of docetaxel. Format: cell-based. The note with it: Mus musculus, docetaxel for 72 h. The procedure: Breast cancer organoids were derived from K14-Cre; Brca1fl/fl; p53fl/fl mouse mammary tumors (KB1P (Kester, L., et al. Clin Cancer Res, 2022.)) and from MMTV-PyMT (Duarte, A. A., et al. Nat Methods, 2018. 15(2): p. 134-140) mouse mammary tumors. Both lines were cultured in 50 μl drops of Cultrex PathClear Reduced Growth Factor Basement Membrane Extract Type 2 (BME, Amsbio, 3533-005-02). KB1P organoids were cultured in Advanced Dulbecco's modified Eagle's medium (adDMEM/F12; Thermo Fisher Scientific. Cat. No. 12634-010) containing Hepes (10 mmol/L; Thermo Fisher Scientific, Cat. No. 15630-056), Penicillin/streptomycin (10,000 U/ml; Thermo Fisher Scientific, Cat. No. 15140-122), B27 (2% Thermo Fisher Scientific, Cat. No. 17504-044), N-acetylcysteine (1.25 mM; Sigma-Aldrich, Cat. No. A9165) and fibroblast growth factor (FGF, 12 ng/ml; Invitrogen, Cat. No. PHG0261). MMTV-PyMT organoids were cultured in DMEM/F12 GlutaMAX (Gibco, Cat. No 10565018) supplemented with 10 mmol/L Hepes (Gibco, Cat. No 15630106), Penicillin/streptomycin (10,000 U/ml; Thermo Fisher Scientific, Cat. No. 15140-122), B27 (2% Thermo Fisher Scientific, Cat. No. 17504-044) and fibroblast growth factor (FGF, 12 ng/ml; Invitrogen, Cat. No. PHG0261). […]
Following co-culture, medium was removed, and cultures were washed in PBS to remove T cells. […] Plates were read with a 565 nm wavelength.

The subject of assay [1] is mouse T cells isolated from the spleen. Description: T cell immunofluorescence staining of tubulin and F-actin. The note with it: 10 nmol/L, 72 h. Format: cell-based. How it is done: Mouse T cells isolated from the spleen and treated with a vehicle control or with docetaxel (10 nmol/L for 72 h) were seeded on glass coverslips pre-coated with poly-D-lysine (Thermo Fisher Cat. No. A3890401) and with αCD3 (eBioscience, Cat. No. 56-0033-80) for 15 min. Next, for immunofluorescence staining of tubulin, cells were extracted for 1 min with pre-warmed (37° C.) extraction buffer composed of MRB80 (80 mmol/L K-PIPES pH 6.8, 4 mmol/L MgCl2, 1 mmol/L EGTA) supplemented with 0.35% Triton X-100 and 0.2% glutaraldehyde, followed by fixation using pre-warmed (37° C.) 4% paraformaldehyde (PFA) in PBS for 10 min. Cells were washed with PBS and permeabilized with 0.2% Triton X-100 in PBS for 5 min. […]
For fluorescence intensity quantifications, samples were imaged on a spinning disk confocal setup consisting of an inverted research microscope Nikon Eclipse Ti-E (Nikon) equipped with the perfect focus system (Nikon), Plan Apo VC 100×N.A. 1.40 oil objective (Nikon), spinning disk Yokogawa CSU-X1-A1 with 405-491-561-642 quad-band mirror (Yokogawa). […]
All images were processed using ImageJ. For quantification of fluorescence intensity, sum projections were made for each z-stack using ImageJ. Next, the raw integrated density of a square box around individual cells of interest per image, as well as an empty region in the field of view, were calculated using ImageJ. […]

Usually IC50 stands for the concentration that inhibits the measured activity by half. A low value points to greater potency in that assay. The compound `CC(=O)O[C@@]12CO[C@@H]1C[C@H](O)[C@@]1(C)C(=O)[C@H](O)C3=C(C)[C@@H](OC(=O)[C@H](O)[C@@H](NC(=O)OC(C)(C)C)c4ccccc4)C[C@@](O)([C@@H](OC(=O)c4ccccc4)[C@H]21)C3(C)C` [docetaxel] gave an IC50 with MMTV-PyMT organoids of 130 nM. In addition, the microtubule density entry in assay [1] is reported as “increased microtubule density”.
